Assays:
[1] = target: T1, purified rat liver 6-phosphofructo-1-kinase (Rattus norvegicus, UniProt P30835); experiment: stimulation of 6-phosphofructo-1-kinase (PFK), aldolase-coupled spectrophotometric assay; format: biochemical; conditions: pH 7.3, 30° C., 1 mM ATP, 0.2 mM fructose-6-phosphate, read-out: PFK ED50
T1 construct: purified rat liver 6-phosphofructo-1-kinase; from tissue; host or cells: rat liver
T1 sequence (P30835 2-780 limits assumed): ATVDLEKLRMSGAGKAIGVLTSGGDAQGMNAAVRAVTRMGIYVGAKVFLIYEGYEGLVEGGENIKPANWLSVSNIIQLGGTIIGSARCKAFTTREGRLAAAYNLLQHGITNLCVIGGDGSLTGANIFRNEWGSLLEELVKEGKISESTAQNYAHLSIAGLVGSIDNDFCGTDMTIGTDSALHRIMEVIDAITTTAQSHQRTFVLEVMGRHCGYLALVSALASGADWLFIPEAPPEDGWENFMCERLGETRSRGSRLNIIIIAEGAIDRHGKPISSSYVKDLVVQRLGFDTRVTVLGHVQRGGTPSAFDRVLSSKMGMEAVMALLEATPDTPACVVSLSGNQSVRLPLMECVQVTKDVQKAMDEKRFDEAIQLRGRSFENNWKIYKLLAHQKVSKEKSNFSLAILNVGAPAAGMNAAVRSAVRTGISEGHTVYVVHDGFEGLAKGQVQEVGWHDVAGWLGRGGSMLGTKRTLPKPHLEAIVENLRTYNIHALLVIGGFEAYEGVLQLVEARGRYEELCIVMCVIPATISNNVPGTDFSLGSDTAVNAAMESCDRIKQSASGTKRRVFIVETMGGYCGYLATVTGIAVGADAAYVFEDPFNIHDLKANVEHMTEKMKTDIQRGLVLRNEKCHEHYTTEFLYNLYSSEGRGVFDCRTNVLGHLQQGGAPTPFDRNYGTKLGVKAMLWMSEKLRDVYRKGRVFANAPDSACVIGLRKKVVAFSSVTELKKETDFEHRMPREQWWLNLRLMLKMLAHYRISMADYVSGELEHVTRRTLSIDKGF
Experimental: (§1) The novel compounds of this invention were tested for their ability to stimulate the enzyme 6-phosphofructo-1-kinase ("PFK") and for their ability to inhibit the enzyme fructose-1,6-bisphosphatase ("FBP") using the procedures described below.
Effects on the activity of PFK were determined using an aldolase-coupled, spectrophotometric assay. The assay mixture contained: 50 mM N-tris(hydroxymethyl) methyl-2-aminoethanesulfonic acid, hydrochloride ("TES-HCl", pH 7.3); 1 mM ethylenediaminetetraacetic acid ("EDTA"); 6 mM magnesium chloride; 2.5 mM dithiothreitol; 0.165 mM nicotinamide adenine dinucleotide ("NADH"); 1 mM adenosine triphosphate ("ATP"); 0.04U aldolase; 0.4U triose phosphate isomerase; 1.5U alpha-glycerolphosphate dehydrogenase; 0.lU of purified rat liver 6-phosphofructo-1-kinase; and various concentrations of the test compound, all in a final volume of 1 ml. The mixture was preincubated for 3 minutes at 30° C. and then the reaction was initiated with 0.2 mM fructose-6-phosphate. The rate of decrease in absorbance at 340 nm was measured at 30° C. with a recording spectrophotometer.

[2] = target: T2, purified rat liver FBP (fructose-1,6-bisphosphatase) (Rattus norvegicus, UniProt P19112); experiment: inhibition of fructose-1,6-bisphosphatase (FBP), spectrophotometric assay; format: biochemical; conditions: pH 7.4, 30° C., 0.02 mM fructose-1,6-bis-phosphate
T2 construct: purified rat liver FBP; from tissue; host or cells: rat liver
T2 sequence (P19112 2-363 limits assumed): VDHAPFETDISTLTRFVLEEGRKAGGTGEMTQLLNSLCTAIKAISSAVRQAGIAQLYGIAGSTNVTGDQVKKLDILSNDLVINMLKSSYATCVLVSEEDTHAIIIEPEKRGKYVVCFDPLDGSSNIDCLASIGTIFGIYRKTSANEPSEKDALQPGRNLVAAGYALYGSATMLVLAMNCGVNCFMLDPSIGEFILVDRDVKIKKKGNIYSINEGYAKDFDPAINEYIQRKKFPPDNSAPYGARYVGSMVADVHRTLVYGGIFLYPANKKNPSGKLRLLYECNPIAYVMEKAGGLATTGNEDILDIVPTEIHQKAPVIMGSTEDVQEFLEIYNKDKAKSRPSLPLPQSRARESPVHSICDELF
Experimental: as §1
Effects on the activity of FBP were determined using a spectrophotometric assay. The assay mixture contained: 100 mM tris(hydroxymethyl)aminomethane, hydrochloride ("TRIS-HCl", pH 7.4); 2.5 mM beta-mercaptoethanol; 2 mM magnesium chloride; 0.05 mM EDTA; 0.2 mM nicotinamide adenine dinucleotide phosphate ("NADP"); 10 U phosphoglucose isomerase; 5 U glucose-6-phosphate dehydrogenase; 0.02U of purified rat liver FBP; and various concentrations of the test compound, all in a final volume of 1 ml. The mixture was preincubated for 3 minutes at 30° C. and then the reaction was initiated with 0.02 mM fructose-1,6-bis-phosphate. The rate of increase in absorbance at 340 nm was measured at 30° C. with a recording spectrophotometer

Row | EC50 [1] | IC50 [2] | SMILES
1 | 10 µM | 54 µM | O=P(O)(O)OC[C@H]1OC(C(F)P(=O)(O)O)[C@@H](O)[C@@H]1O (mixture of isomers) [2,5-Anhydro-1-deoxy-1-fluoro-1-phosphono-D-glucitol and D-mannitol, 6-(dihydrogen phosphate) mixture (70:30)]
2 | 0.7 µM | 110 µM | O=P(O)(O)OC[C@H]1O[C@@](CO)(C(F)P(=O)(O)O)[C@@H](O)[C@@H]1O (single isomer, unassigned) [2,5-Anhydro-1-deoxy-1-fluoro-2-(hydroxymethyl)-1-phosphono-D-glucitol, 6-(dihydrogen phosphate)]
3 | 14 µM | 226 µM | O=P(O)(O)OC[C@H]1O[C@H](C(F)(F)P(=O)(O)O)[C@@H](O)[C@@H]1O [2,5-Anhydro-1-deoxy-1,1-difluoro-1-phosphono-D-mannitol, 6-(dihydrogen phosphate)]
4 | 22 µM | 114 µM | O=P(O)(O)OC[C@H]1O[C@H](C(F)P(=O)(O)O)[C@@H](O)[C@@H]1O (stereo partly drawn) [2,5-Anhydro-1-deoxy-1-fluoro-1-phosphono-D-mannitol, 6-(dihydrogen phosphate)]
5 | 1.3 µM | 378 µM | O=P(O)(O)OC[C@H]1O[C@](CO)(C(F)P(=O)(O)O)[C@@H](O)[C@@H]1O (stereo partly drawn) [2,5-Anhydro-2-C-(fluorophosphonomethyl)-D-glucitol, 6-(dihydrogen phosphate)]
6 | 20 µM | 393 µM | O=P(O)(O)OC[C@H]1O[C@](CO)(C(O)P(=O)(O)O)[C@@H](O)[C@@H]1O (stereo partly drawn) [2,5-Anhydro-2-C-(hydroxyphosphonomethyl)-D-glucitol, 6-(dihydrogen phosphate)]
7 | 3 µM | 27 µM | O=P(O)(O)OC[C@H]1O[C@H](CC(F)(F)P(=O)(O)O)[C@@H](O)[C@@H]1O [3,6-Anhydro-1,2-dideoxy-1,1-difluoro-1-phosphono-D-manno-heptitol, 7-(dihydrogen phosphate)]
8 | 1.3 µM | 61 µM | O=P(O)(O)OC[C@H]1O[C@H](CC(F)P(=O)(O)O)[C@@H](O)[C@@H]1O (stereo partly drawn) [[1R(and 1S)]-3,6-Anhydro-1,2-dideoxy-1-fluoro-1-phosphono-D-manno-heptitol, 7-(dihydrogen phosphate)]
9 | 13 µM | 44 µM | O=P(O)(O)OC[C@H]1O[C@H](C(O)P(=O)(O)O)[C@@H](O)[C@@H]1O (stereo partly drawn) [[1R(and/or 1S)]-2,5-Anhydro-1-C-phosphono-D-mannitol, 6-(dihydrogen phosphate)]
10 | 1 µM | 62 µM | O=P(O)(O)OC[C@H]1O[C@H](CC(O)P(=O)(O)O)[C@@H](O)[C@@H]1O (stereo partly drawn) [[1R(and/or 1S)]-3,6-Anhydro-2-deoxy-1-phosphono-D-manno-heptitol, 7-(dihydrogen phosphate)]

From patent US4943629A, “Antidiabetic alpha-substituted phosphonates” (American Cyanamid Company, priority 1988, dated 1990)
